# Where a name gives a salt, the structure may show the parent alone. *1 amine or outer side, *2 acyl side, *3 side chain or, on linkers, in order; H or OH if unused. Where a SMILES comes first, the peptide text is derived from it. Bridges are numbered along the chain shown (N, C = ends). [ ]: non-standard residue; d: D form. The star is where a group is joined. ξ: configuration not given here. GABA(4S-Me) = C[C@@H](CCC(=O)[*:2])N[*:1]; ξHexahydromandeloyl = O=C(C(O)C1CCCCC1)*; Octanoyl(3-OH) = CCCCCC(O)CC(=O)*; Thr(3ξ) = CC(O)[C@H](N)C(=O)O; X5 = CC(C)[C@H](N)CCC(=O)*; Dab = NCC[C@H](N)C(=O)O; X12 = O=C(CCCN1CCOCC1)*; X1 = CCCCCCC(O)C(=O)*; Glycolyl = O=C(CO)*; X4 = CN(C)CCCC(=O)*; X6 = O=C(CCCCCCCO)*
# Assays:
# Assay in all cases: MIC susceptibility testing, broth microdilution in CaMHB
# E. coli ATCC25922 = type: cell-based, Escherichia coli
# Method: (§1) To evaluate the potency and spectrum of the compounds, susceptibility testing was performed against four strains of each of the four Gram negative pathogens, Escherichia coli, Pseudomonas aeruginosa, Klebsiella pneumoniae and Acinetobacter baumannii.
# (§2) The day before testing, 3 to 4 colonies were picked from fresh Mueller-Hinton Agar (MHA) plate and transferred into 10 mL of Cation adjusted MHB (CaMHB). Cultures were incubated at 37° C. 250 rpm for 18-20 hours before being diluted 100-fold in fresh CaMHB. The subcultures were grown further until the OD600 reached 0.2-0.3 corresponding to […]. The actively growing cultures were diluted 100-fold in fresh medium and used for the inoculum.
# (§3) The assays were performed in duplicate.
# (§4) Data was obtained under similar conditions to Table 4 except that different batches of cation-adjusted Muller-Hinton broth were used. The MIC values for these compounds are compared with those values obtained for Polymyxin B, Colistin Sulphate, CB-182,804 and NAB739 (as the TFA salt). CB-182,804 is a polymyxin decapeptide derivative with an aryl urea substituent at the N-terminus, which has been claimed to have lower toxicity than Polymyxin B (compound 5 in WO 2010/075416. See page 37). NAB739 has been described previously by Vaara et al.
# E. coli NCTC12900 = type: cell-based, Escherichia coli; conditions: Table 4A, different batches of cation-adjusted Muller-Hinton broth
# Method: as §1, §2, §3, §4
# E. coli NCTC9001 = type: cell-based, Escherichia coli
# Method: as §1, §2, §3, §4
# P. aeruginosa ATCC 9721 = type: cell-based, Pseudomonas aeruginosa; conditions: P. aeruginosa ATCC9721; Table 4A, different batches of cation-adjusted Muller-Hinton broth
# Method: as §1, §2, §3, §4
# P. aeruginosa ATCC10145 = type: cell-based, Pseudomonas aeruginosa
# Method: as §1, §2, §3, §4
# P. aeruginosa ATCC27853 = type: cell-based, Pseudomonas aeruginosa
# Method: as §1, §2, §3, §4
# [1] = system: P. aeruginosa ATCCCRM-9027; type: cell-based, Pseudomonas aeruginosa
# Method: as §1, §2, §3, §4
# K. pneumoniae ATCC 4352 = type: cell-based, Klebsiella pneumoniae; conditions: K. pneumoniae ATCC4352; Table 4A, different batches of cation-adjusted Muller-Hinton broth
# Method: as §1, §2, §3, §4
# K. pneumoniae NCTC7427 = type: cell-based, Klebsiella pneumoniae
# Method: as §1, §2, §3, §4
# K. pneumoniae NCTC8172 = type: cell-based, Klebsiella pneumoniae; conditions: Table 4A, different batches of cation-adjusted Muller-Hinton broth
# Method: as §1, §2, §3, §4
# A. baumannii ATCC19606 = type: cell-based, Acinetobacter baumannii; conditions: Table 4A, different batches of cation-adjusted Muller-Hinton broth
# Method: as §1, §2, §3, §4
# A. baumannii ATCCBAA-747 = type: cell-based, Acinetobacter baumannii; conditions: Table 4A, different batches of cation-adjusted Muller-Hinton broth
# Method: as §1, §2, §3, §4
# A. baumannii NCTC13423 = type: cell-based, Acinetobacter baumannii; conditions: Table 4A, different batches of cation-adjusted Muller-Hinton broth
# Method: as §1, §2, §3, §4
# A. baumannii NCTC7844 = type: cell-based, Acinetobacter baumannii
# Method: as §1, §2, §3, §4
# E. coli ATCC700928 = type: cell-based, Escherichia coli
# Method: as §1, §2, §3, §4
# [2] = system: K. pneumoniae ATCCBAA-1706; type: cell-based, Klebsiella pneumoniae; conditions: Table 4A, different batches of cation-adjusted Muller-Hinton broth
# Method: as §1, §2, §3, §4
# [3] = Table 4A, different batches of cation-adjusted Muller-Hinton broth
# [4] = P. aeruginosa AATCCRM 9027, Table 4A, different batches of cation-adjusted Muller-Hinton broth
SMILES,MIC (E. coli ATCC25922; [3]),MIC (P. aeruginosa ATCC27853; [3]),MIC (K. pneumoniae ATCC 4352),MIC (A. baumannii ATCC19606),MIC (P. aeruginosa ATCC10145; [3]),"MIC [1, 4]",MIC (K. pneumoniae NCTC7427; [3]),MIC (K. pneumoniae NCTC8172),MIC (A. baumannii ATCCBAA-747),MIC (A. baumannii NCTC13423),MIC (A. baumannii NCTC7844; [3]),also measured
"CC(C)C[C@@H]1NC(=O)[C@@H](Cc2ccccc2)NC(=O)[C@H](CCN)NC(=O)[C@@H](NC(=O)[C@H](CCN)NC(=O)[C@@H](NC(=O)C(O)C2CCCCC2)C(C)O)CCNC(=O)[C@H](C(C)O)NC(=O)[C@H](CCN)NC(=O)[C@H](CCN)NC1=O (stereo partly drawn) [Example 34, 2-(R,S)-(2-Hydroxy-2-cyclohexyl) ethanoyl polymyxin B nonapeptide] (ξHexahydromandeloyl-[Thr(3ξ)][Dab][Dab][Dab][dF]L[Dab][Dab][Thr(3ξ)]; lactam 3-C)",0.5 micrograms/mL,0.125 micrograms/mL,1 micrograms/mL,1 micrograms/mL,0.5 micrograms/mL,0.5 micrograms/mL,0.5 micrograms/mL,>32 micrograms/mL,1 micrograms/mL,0.25 micrograms/mL,2 micrograms/mL,MIC (E. coli NCTC12900): 8 micrograms/mL; MIC (E. coli NCTC9001; [3]): 8 micrograms/mL; MIC (P. aeruginosa ATCC 9721): 0.25 micrograms/mL
"CC(C)C[C@@H]1NC(=O)[C@@H](Cc2ccccc2)NC(=O)[C@H](CCN)NC(=O)[C@@H](NC(=O)[C@H](CCN)NC(=O)[C@@H](NC(=O)CCCCCCCO)C(C)O)CCNC(=O)[C@H](C(C)O)NC(=O)[C@H](CCN)NC(=O)[C@H](CCN)NC1=O (stereo partly drawn) [Example 8, 8-Hydroxyoctanoyl Polymyxin B Nonapeptide, Sulphate Salt] (X6-[Thr(3ξ)][Dab][Dab][Dab][dF]L[Dab][Dab][Thr(3ξ)]; lactam 3-C)",,,,,,,,,,,,"MIC (E. coli ATCC25922; Table 4): 2 micrograms/mL; MIC (E. coli ATCC700928; Table 4): 0.5 micrograms/mL; MIC (E. coli NCTC9001; Table 4): 2 micrograms/mL; MIC (P. aeruginosa ATCC10145; Table 4): 2 micrograms/mL; MIC (P. aeruginosa ATCC27853; Table 4): 0.5 micrograms/mL; MIC ([1]; P. aeruginosa ATCCCRM-9027, Table 4): 0.25 micrograms/mL; MIC (K. pneumoniae NCTC7427; Table 4): 1 micrograms/mL; MIC (A. baumannii NCTC7844; Table 4): 16 micrograms/mL"
"CC(C)C[C@@H]1NC(=O)[C@@H](Cc2ccccc2)NC(=O)[C@H](CCN)NC(=O)[C@@H](NC(=O)[C@H](CCN)NC(=O)[C@@H](NC(=O)CCCN(C)C)C(C)O)CCNC(=O)[C@H](C(C)O)NC(=O)[C@H](CCN)NC(=O)[C@H](CCN)NC1=O (stereo partly drawn) [Example 18, 4-(N,N-dimethylamino)-butanoyl polymyxin B nonapeptide] (X4-[Thr(3ξ)][Dab][Dab][Dab][dF]L[Dab][Dab][Thr(3ξ)]; lactam 3-C)",0.5 micrograms/mL,0.125 micrograms/mL,0.5 micrograms/mL,1 micrograms/mL,0.25 micrograms/mL,2 micrograms/mL,0.125 micrograms/mL,>32 micrograms/mL,16 micrograms/mL,4 micrograms/mL,8 micrograms/mL,MIC (E. coli ATCC700928; [3]): 0.25 micrograms/mL; MIC (E. coli NCTC12900): 4 micrograms/mL; MIC [2]: 8 micrograms/mL
"CC(C)C[C@@H]1NC(=O)[C@@H](Cc2ccccc2)NC(=O)[C@H](CCN)NC(=O)[C@@H](NC(=O)[C@H](CCN)NC(=O)[C@@H](NC(=O)CCCN2CCOCC2)C(C)O)CCNC(=O)[C@H](C(C)O)NC(=O)[C@H](CCN)NC(=O)[C@H](CCN)NC1=O (stereo partly drawn) [Example 20, 4-Morpholinylbutanoyl polymyxin B nonapeptide] (X12-[Thr(3ξ)][Dab][Dab][Dab][dF]L[Dab][Dab][Thr(3ξ)]; lactam 3-C)",4 micrograms/mL,1 micrograms/mL,>32 micrograms/mL,>32 micrograms/mL,,,,,,,,
"CCCCCCC(O)C(=O)N[C@H](C(=O)N[C@@H](CCN)C(=O)N[C@H]1CCNC(=O)[C@H](C(C)O)NC(=O)[C@H](CCN)NC(=O)[C@H](CCN)NC(=O)[C@H](CC(C)C)NC(=O)[C@@H](CC(C)C)NC(=O)[C@H](CCN)NC1=O)C(C)O (stereo partly drawn) [Example 26, 2-(R,S)-2-Hydroxyoctanoyl polymyxin E nonapeptide] (X1-[Thr(3ξ)][Dab][Dab][Dab][dL]L[Dab][Dab][Thr(3ξ)]; lactam 3-C)",8 micrograms/mL,4 micrograms/mL,8 micrograms/mL,16 micrograms/mL,,,,,,,,
"CC(C)C[C@@H]1NC(=O)[C@@H](Cc2ccccc2)NC(=O)[C@H](CCN)NC(=O)[C@@H](NC(=O)[C@H](CCN)NC(=O)[C@@H](NC(=O)CC[C@@H](N)C(C)C)C(C)O)CCNC(=O)[C@H](C(C)O)NC(=O)[C@H](CCN)NC(=O)[C@H](CCN)NC1=O (stereo partly drawn) [Example 29, 4-(R)-Amino-5-methylhexanoyl polymyxin B nonapeptide] (X5-[Thr(3ξ)][Dab][Dab][Dab][dF]L[Dab][Dab][Thr(3ξ)]; lactam 3-C)",8 micrograms/mL,0.125 micrograms/mL,0.5 micrograms/mL,2 micrograms/mL,0.5 micrograms/mL,0.5 micrograms/mL,0.5 micrograms/mL,>32 micrograms/mL,1 micrograms/mL,0.5 micrograms/mL,2 micrograms/mL,MIC (E. coli ATCC700928; [3]): 2 micrograms/mL; MIC (P. aeruginosa ATCC 9721): 0.25 micrograms/mL

# Continued, in another order:
MIC (E. coli ATCC25922; [3]),MIC (P. aeruginosa ATCC27853; [3]),MIC (K. pneumoniae ATCC 4352),MIC (A. baumannii ATCC19606),SMILES,MIC (P. aeruginosa ATCC10145; [3]),"MIC [1, 4]",MIC (K. pneumoniae NCTC7427; [3]),MIC (K. pneumoniae NCTC8172),MIC (A. baumannii ATCCBAA-747),MIC (A. baumannii NCTC13423),MIC (A. baumannii NCTC7844; [3]),also measured
8 micrograms/mL,2 micrograms/mL,8 micrograms/mL,4 micrograms/mL,"CCCCCC(O)CC(=O)N[C@H](C(=O)N[C@@H](CCN)C(=O)N[C@H]1CCNC(=O)[C@H](C(C)O)NC(=O)[C@H](CCN)NC(=O)[C@H](CCN)NC(=O)[C@H](CC(C)C)NC(=O)[C@@H](Cc2ccccc2)NC(=O)[C@H](CCN)NC1=O)C(C)O (stereo partly drawn) [Example 17, 3-(R,S)-3-Hydroxyoctanoyl polymyxin B nonapeptide] ({Octanoyl(3-OH)}-[Thr(3ξ)][Dab][Dab][Dab][dF]L[Dab][Dab][Thr(3ξ)]; lactam 3-C)",,,,,,,,
32 micrograms/mL,0.25 micrograms/mL,8 micrograms/mL,32 micrograms/mL,"CC(C)C[C@@H]1NC(=O)[C@@H](Cc2ccccc2)NC(=O)[C@H](CCN)NC(=O)[C@@H](NC(=O)[C@H](CCN)NC(=O)[C@@H](NC(=O)CO)C(C)O)CCNC(=O)[C@H](C(C)O)NC(=O)[C@H](CCN)NC(=O)[C@H](CCN)NC1=O (stereo partly drawn) [Example 16, Hydroxyacetyl polymyxin B nonapeptide] (Glycolyl-[Thr(3ξ)][Dab][Dab][Dab][dF]L[Dab][Dab][Thr(3ξ)]; lactam 3-C)",,,,,,,,
>32 micrograms/mL,0.25 micrograms/mL,0.5 micrograms/mL,8 micrograms/mL,"CC(C)C[C@@H]1NC(=O)[C@@H](Cc2ccccc2)NC(=O)[C@H](CCN)NC(=O)[C@@H](NC(=O)[C@H](CCN)NC(=O)[C@@H](NC(=O)CC[C@H](C)N)C(C)O)CCNC(=O)[C@H](C(C)O)NC(=O)[C@H](CCN)NC(=O)[C@H](CCN)NC1=O (stereo partly drawn) [Example 31, 4-(S)-aminopentanoyl polymyxin B nonapeptide] ({GABA(4S-Me)}-[Thr(3ξ)][Dab][Dab][Dab][dF]L[Dab][Dab][Thr(3ξ)]; lactam 3-C)",,,,,,,,

# — patent US9234006B2, “Compounds” (Novacta Biosystems Limited, priority 2011, dated 2016)
